Laboratory results: paper PMC6941952, “A homogeneous bioluminescent immunoassay to probe cellular signaling pathway regulation” (Communications Biology, 2020)
Several values for one entry are separate records, joined by “and”; a condition that tells them apart may be missing. Equal values may be shown once.

System: STAT3 Phospho-Tyr705
Assay: NanoBiT pSTAT3 cell-based immunoassay in A431 cells
Parameters: species or system human
Details: IL-6 10 ng/ml; for P-STAT3 (% compared to no inhibitor): replicate
Method: Prior to NanoBiT Cell-Based Immunoassay, 50,000 cells were seeded in 160 µl of complete growth media per well of a 96-well plate and incubated overnight. […] If necessary, the cell culture media were replaced with serum-free media after the cells were stably adherent on the plate and incubated overnight. To treat cells with activators or inhibitors, medium was changed to 30 µl of medium containing inhibitors. If activation of a specific pathway is needed, the cells were stimulated with 10 µl of medium containing activators. To lyse the cells, 10 µl of lysis buffer containing 0.1% digitonin diluted in 1X immunoassay buffer with protease and phosphatase inhibitors was added and the plates were mixed vigorously for 20 min. Then, 50 µl of an antibody mix containing two primary antibodies against the target protein and NanoBiT detecting antibodies (0.3 µl each per well), diluted in 1X immunoassay buffer was added to the lysates. The plates were incubated at 23 °C for 90 min, followed by the addition of 25 µl of Nano-Glo® reagent consisting of Nano-Glo® Luciferase Assay Substrate mixed with 1X immunoassay buffer. Luminescence was measured using a plate-reading luminometer.
Single dose or dose response inhibitor treatments were performed prior to activation of the pathways as follows. For IκBα, the cells were treated in 30 µl medium with IKK16 or MG132 for 60 min before the addition of 10 µl of DMEM containing appropriate concentration of TNFα. To measure phosphorylation of AKT or STAT3, the corresponding NanoBiT immunoassays were developed with MCF-7 or A431 cells, respectively, according the same scheme used to develop the IκBα assay using the primary antibodies for AKT and STAT3 described in the reagents section. […] Treatment with LY294002 was performed in 30 µl medium and cells were incubated for 60 min before the addition of 1 µM Insulin. To measure STAT3 phosphorylation, A431 cells were incubated overnight in DMEM medium without serum. […] After addition of the stimulators, the cells were incubated for additional times as follows. IκBα phosphorylation and degradation analyses required both time courses and single time points as described in figures. […] The NanoBiT immunoassay protocol was followed as described above.
All 96-well assay plates were read using a GloMax® 96 Microplate Luminometer from Promega. The instrument was set to 0.5 s integration time. In order to obtain net change of signal, the reagent background values (signal from the well containing all reagent except primary antibodies) were subtracted from the sample values. To plot and analyze the data, Microsoft Excel and GraphPad Prism® Software were used. IC50 values were determined by using a nonlinear regression fit to a sigmoidal dose response (variable slope).

CN(C)C(=O)/C(C#N)=C/c1ccc(-c2nc3cnc4[nH]ccc4c3n2C2CCCCC2)o1 [FM-381]
P-STAT3 (% compared to no inhibitor) Average (inhibitor 0.0190735 nM): 105.1%
P-STAT3 (% compared to no inhibitor) Average (inhibitor 0.038147 nM): 92.2%
P-STAT3 (% compared to no inhibitor) Average (inhibitor 0.0762939 nM): 92.0%
P-STAT3 (% compared to no inhibitor) Average (inhibitor 0.152588 nM): 93.2%
P-STAT3 (% compared to no inhibitor) Average (inhibitor 0.305176 nM): 90.6%
P-STAT3 (% compared to no inhibitor) Average (inhibitor 0.610352 nM): 92.3%
P-STAT3 (% compared to no inhibitor) Average (inhibitor 1.2207 nM): 95.1%
P-STAT3 (% compared to no inhibitor) Average (inhibitor 2.44141 nM): 87.8%
P-STAT3 (% compared to no inhibitor) Average (inhibitor 4.88281 nM): 94.8%
P-STAT3 (% compared to no inhibitor) Average (inhibitor 9.76562 nM): 88.5%
P-STAT3 (% compared to no inhibitor) Average (inhibitor 19.5312 nM): 102.9%
P-STAT3 (% compared to no inhibitor) Average (inhibitor 39.0625 nM): 94.1%
P-STAT3 (% compared to no inhibitor) Average (inhibitor 78.125 nM): 88.7%
P-STAT3 (% compared to no inhibitor) Average (inhibitor 156.25 nM): 85.8%
P-STAT3 (% compared to no inhibitor) Average (inhibitor 312.5 nM): 74.2%
P-STAT3 (% compared to no inhibitor) Average (inhibitor 625 nM): 60.8%
P-STAT3 (% compared to no inhibitor) Average (inhibitor 2500 nM): 22.9%
P-STAT3 (% compared to no inhibitor) Average (inhibitor 5000 nM): 12.0%
P-STAT3 (% compared to no inhibitor) Average (inhibitor 10000 nM): 7.8%
P-STAT3 (% compared to no inhibitor) Average (inhibitor […]): 41.3%
P-STAT3 Raw data (inhibitor 0.0190735 nM): 278100 and 296300 and 285800
P-STAT3 Subtract reagent background (inhibitor 0.0190735 nM): 177250 and 195450 and 184950
P-STAT3 Raw data (inhibitor 0.038147 nM): 270700 and 268700 and 257500
P-STAT3 Subtract reagent background (inhibitor 0.038147 nM): 168850 and 166850 and 155650
P-STAT3 Raw data (inhibitor 0.0762939 nM): 272300 and 259800 and 258800
P-STAT3 Subtract reagent background (inhibitor 0.0762939 nM): 172505 and 160005 and 159005
P-STAT3 Raw data (inhibitor 0.152588 nM): 261700 and 262700 and 269600
P-STAT3 Subtract reagent background (inhibitor 0.152588 nM): 162310 and 163310 and 170210
P-STAT3 Raw data (inhibitor 0.305176 nM): 244400 and 266100 and 264700
P-STAT3 Subtract reagent background (inhibitor 0.305176 nM): 145940 and 167640 and 166240
P-STAT3 Raw data (inhibitor 0.610352 nM): 253900 and 276500 and 252400
P-STAT3 Subtract reagent background (inhibitor 0.610352 nM): 156070 and 178670 and 154570
P-STAT3 Raw data (inhibitor 1.2207 nM): 278300 and 261300 and 251600
P-STAT3 Subtract reagent background (inhibitor 1.2207 nM): 184135 and 167135 and 157435
P-STAT3 Raw data (inhibitor 2.44141 nM): 238200 and 252900 and 237300
P-STAT3 Subtract reagent background (inhibitor 2.44141 nM): 150835 and 165535 and 149935
P-STAT3 Raw data (inhibitor 4.88281 nM): 243400 and 259600 and 241900
P-STAT3 Subtract reagent background (inhibitor 4.88281 nM): 162830 and 179030 and 161330
P-STAT3 Raw data (inhibitor 9.76562 nM): 219800 and 245100 and 214000
P-STAT3 Subtract reagent background (inhibitor 9.76562 nM): 149750 and 175050 and 143950
P-STAT3 Raw data (inhibitor 19.5312 nM): 297400 and 269300 and 273700
P-STAT3 Subtract reagent background (inhibitor 19.5312 nM): 172850 and 196550 and 168450
P-STAT3 Raw data (inhibitor 39.0625 nM): 266500 and 275400 and 255500
P-STAT3 Subtract reagent background (inhibitor 39.0625 nM): 153650 and 164650 and 173550
P-STAT3 Raw data (inhibitor 78.125 nM): 243600 and 255500 and 264900
P-STAT3 Subtract reagent background (inhibitor 78.125 nM): 165105 and 143805 and 155705
P-STAT3 Raw data (inhibitor 156.25 nM): 244000 and 250600 and 253000
P-STAT3 Subtract reagent background (inhibitor 156.25 nM): 153610 and 144610 and 151210
P-STAT3 Raw data (inhibitor 312.5 nM): 227000 and 243200 and 212500
P-STAT3 Subtract reagent background (inhibitor 312.5 nM): 114040 and 128540 and 144740
P-STAT3 Raw data (inhibitor 625 nM): 189200 and 199400 and 224200
P-STAT3 Subtract reagent background (inhibitor 625 nM): 126370 and 91370 and 101570
P-STAT3 Raw data (inhibitor 2500 nM): 128000 and 133500 and 120100
P-STAT3 Subtract reagent background (inhibitor 2500 nM): 32735 and 40635 and 46135
P-STAT3 Raw data (inhibitor 5000 nM): 101000 and 109100 and 93870
P-STAT3 Raw data (inhibitor 10000 nM): 84360 and 88520 and 77950
P-STAT3 (% compared to no inhibitor) (inhibitor 0.0190735 nM): 88.0% and 120.5% and 106.8%
P-STAT3 (% compared to no inhibitor) (inhibitor 0.038147 nM): 83.9% and 102.9% and 89.9%
P-STAT3 (% compared to no inhibitor) (inhibitor 0.0762939 nM): 85.7% and 98.6% and 91.8%
P-STAT3 (% compared to no inhibitor) (inhibitor 0.152588 nM): 80.6% and 100.7% and 98.3%
P-STAT3 (% compared to no inhibitor) (inhibitor 0.305176 nM): 72.5% and 103.3% and 96.0%
P-STAT3 (% compared to no inhibitor) (inhibitor 0.610352 nM): 77.5% and 110.1% and 89.2%
P-STAT3 (% compared to no inhibitor) (inhibitor 1.2207 nM): 91.5% and 103.0% and 90.9%
P-STAT3 (% compared to no inhibitor) (inhibitor 2.44141 nM): 74.9% and 102.0% and 86.6%
P-STAT3 (% compared to no inhibitor) (inhibitor 4.88281 nM): 80.9% and 110.4% and 93.1%
P-STAT3 (% compared to no inhibitor) (inhibitor 9.76562 nM): 74.4% and 107.9% and 83.1%
P-STAT3 (% compared to no inhibitor) (inhibitor 19.5312 nM): 95.2% and 115.2% and 98.2%
P-STAT3 (% compared to no inhibitor) (inhibitor 39.0625 nM): 84.6% and 96.5% and 101.2%
P-STAT3 (% compared to no inhibitor) (inhibitor 78.125 nM): 90.9% and 84.3% and 90.8%
P-STAT3 (% compared to no inhibitor) (inhibitor 156.25 nM): 84.6% and 84.8% and 88.2%
P-STAT3 (% compared to no inhibitor) (inhibitor 312.5 nM): 62.8% and 75.3% and 84.4%
P-STAT3 (% compared to no inhibitor) (inhibitor 625 nM): 69.6% and 53.6% and 59.2%
P-STAT3 (% compared to no inhibitor) (inhibitor 2500 nM): 18.0% and 23.8% and 26.9%
P-STAT3 (% compared to no inhibitor) (inhibitor 5000 nM): 7.3% and 12.0% and 16.6%
P-STAT3 (% compared to no inhibitor) (inhibitor 10000 nM): 4.3% and 8.4% and 10.8%
